In article PMC8305076, “Comprehensive Evaluation of Biological Effects of Pentathiepins on Various Human Cancer Cell Lines and Insights into Their Mode of Action” (International Journal of Molecular Sciences, 2021):

Tests used:
[1] = test system: seven cancer cell lines; design: method as in PMID 32311219; key: no impact (0); weak impact (+); strong impact (++); conditions: summary grade; first generation compound; cited from earlier work
[2] = test system: HAP-1, HAP-1.KO.GPx1, A2780, and Siso; design: method as in PMID 32311219; key: no impact (0); weak impact (+); strong impact (++); conditions: summary grade; first generation compound; cited from earlier work
[3] = test system: panel of 14 human cancer cell lines; design: method as in PMID 32311219; key: no impact (0); weak impact (+); strong impact (++); conditions: summary grade; first generation compound; cited from earlier work
[4] = test system: GR/CAT; design: method as in PMID 32311219; key: no impact (0); weak impact (+); strong impact (++); conditions: summary grade; first generation compound; cited from earlier work
[5] = test system: pBR322 plasmid DNA; design: method as in PMID 32311219; key: no impact (0); weak impact (+); strong impact (++); conditions: summary grade; first generation compound; cited from earlier work
[6] = test system: HAP-1, HAP-1.KO.GPx1, A2780 and Siso; design: method as in PMID 32311219; key: no impact (0); weak impact (+); strong impact (++); conditions: summary grade; first generation compound; cited from earlier work
[7] = test system: HAP-1, HAP-1.KO.GPx1, Siso and A2780 cells; design: method as in PMID 32311219; key: no impact (0); weak impact (+); strong impact (++); conditions: summary grade; first generation compound; cited from earlier work
[8] = molecular target: T1, bovine erythrocyte GPx1 (Bos taurus, UniProt P00435); design: method as in PMID 32311219; key to GPx1 inhibition: no impact (0); weak impact (+); strong impact (++); conditions: cited from earlier work
T1 construct: the isolated enzyme from bovine erythrocytes; purchased Sigma-Aldrich (Taufkirchen, Germany); host or cells: isolated from bovine erythrocytes
T1 sequence (P00435 1-205): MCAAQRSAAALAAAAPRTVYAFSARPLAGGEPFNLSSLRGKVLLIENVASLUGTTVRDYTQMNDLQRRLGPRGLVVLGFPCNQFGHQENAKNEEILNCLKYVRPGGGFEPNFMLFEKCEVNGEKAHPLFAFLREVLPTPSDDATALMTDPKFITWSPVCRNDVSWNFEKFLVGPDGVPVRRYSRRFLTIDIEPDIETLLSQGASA

[9] = test system: panel of 14 human cancer cell lines; design: method as in PMID 32311219; key: no impact (0); weak impact (+); strong impact (++); conditions: summary grade; first generation compound; cited from earlier work; remark: listed apart in the source
[10] = test system: HAP-1, HAP-1.KO.GPx1, and Siso; design: method as in PMID 32311219; key: no impact (0); weak impact (+); strong impact (++); conditions: summary grade; first generation compound; cited from earlier work
[11] = test system: Siso; assay: alkaline Comet assay; assay type: cell-based, human; conditions: 25 µM pentathiepin or 20 µM H2O2, 15 min, 0 °C
Excerpt: (§1) Next, the potential of the pentathiepins 1–6 to damage nuclear DNA was investigated in the cell lines HAP-1, HAP-1.KO.GPx1, and Siso, with different expression levels of GPx1 and CAT (see Figure 7), by Comet Assay (Figure 12) with representative images in the Supplementary Materials (Figure S48).
(§2) With this assay, the intensity of DNA damage can be assessed on the level of a single cell, in case of the alkaline version detecting both single and double strand breaks as well as alkali-labile sites. The method presented here is an adaptation of the protocol published by Olive and Banath and based on the distinct electrophoretic mobility of damaged and intact genomic DNA. The latter has a low mobility; does thus not migrate in the electric field; and remains in a nucleoid shape after lysis, referred to as the comet head. In contrast, when strand breaks are created, free charged ends emerge and increase the electrophoretic mobility, prompting DNA segments to drift away from the comet head, thereby forming the so-called comet tail. As descriptor of still intact genomic DNA, the percentage of DNA in the comet head was selected. Per condition, 50,000 cells of either Siso, HAP-1, or HAP-1.KO.GPx1 were diluted in 1 mL of PBS and subsequently treated with either a 1% DMF aqueous solution as negative control, 20 µM of H2O2 as positive control, or 25 µM of pentathiepin for 15 min on ice to impair intracellular DNA repair mechanisms. Afterwards, 400 µL of the cell suspension was blended with 1.2 mL of a 1% low melting point agarose solution (40 °C) and smoothly distributed on agarose-precoated glass slides. Polymerization was finished after 3 min at RT, and the slides were horizontally submerged in alkaline lysis buffer (1.2 M NaCl, 0.1% N-lauryl-sarcosinate, 0.1 M Na-EDTA, 0.26 M NaOH) before storing them at 4 °C overnight. The slides were then rinsed three times in rinse/electrophoresis buffer (0.002 M Na-EDTA, 0.03 M NaOH) before electrophoretic separation was performed for 25 min at 0.6 V/cm. A neutralization step by adding distilled water was followed by staining the slides with 250 µL of an aqueous 10 µg/mL PI solution for 20 min. For visualization and image capturing, a DMi8 fluorescent microscope and LASX software (Leica Microsystems, Wetzlar, Germany) were used, and the comets scored with the help of CometScore2.0 (rexhoover.com). Per condition and replicate, at least 100 comets were analyzed to calculate a mean level of damage.

[12] = test system: HAP-1; assay: alkaline Comet assay; assay type: cell-based, human; conditions: 25 µM pentathiepin or 20 µM H2O2, 15 min, 0 °C
Excerpt: as §1, §2

[13] = test system: HAP-1.KO.GPx1; assay: alkaline Comet assay; assay type: cell-based, human; conditions: 25 µM pentathiepin or 20 µM H2O2, 15 min, 0 °C
Excerpt: as §1, §2

[14] = test system: caspase-3 and -7 in A2780; assay: luminescent caspase activity assay; assay type: cell-based, human; conditions: pentathiepins IC90, doxorubicin 0.5 µM, 24 h
Excerpt: (§3) To further corroborate this mode of cell death, we performed a luminescent caspase assay by measuring caspase-3 (cas-3) and caspase-7 (cas-7) activities (Figure 16). Both are executioner caspases that are present as zymogens (35 kDa) and become active after being cleaved (fragment sizes 17 and 19 kDa) by initiator caspases. Activated cas-3 and -7 in turn have several other substrates, including PARP1. In this assay, a precursor with a caspase-specific target sequence was converted into its luminescent form by active caspase-3 or -7, thereby emitting light that can be quantified.
(§4) To study the activation of the effector caspases -3 and -7, we performed a luminescence-based assay according to the manufacturer’s instructions (Caspase-Glo, Promega, Walldorf, Germany). Briefly, 5000 cells were seeded in 0.1 mL per well of a 96-well plate and allowed to adhere overnight. […] Afterwards, the standard protocol was followed, including a 30 min incubation time before measurement of luminescent signals by using the Spectramax i3x (Molecular Devices, Sunnyvale, CA, USA). After subtraction of the background luminescence the positive control and treatment conditions were related to the negative control.

[15] = test system: caspase-3 and -7 in Siso; assay: luminescent caspase activity assay; assay type: cell-based, human; conditions: pentathiepins IC90, doxorubicin 0.5 µM, 24 h
Excerpt: as §3, §4

[16] = test system: caspase-3 and -7 in HAP-1; assay: luminescent caspase activity assay; assay type: cell-based, human; conditions: pentathiepins IC90, doxorubicin 0.5 µM, 24 h
Excerpt: as §3, §4

[17] = test system: caspase-3 and -7 in HAP-1.KO.GPx1; assay: luminescent caspase activity assay; assay type: cell-based, human; conditions: pentathiepins IC90, doxorubicin 0.5 µM, 24 h
Excerpt: as §3, §4

[18] = test system: PARP1 in HAP-1; assay: Western blot of cleaved PARP1; assay type: cell-based, human; conditions: pentathiepins IC90, doxorubicin 0.5 µM, 24 h
Procedure: (§5) In addition to general flow cytometric and microscopic analyses, Western blotting was performed to detect the apoptosis-relevant protein PARP1 (poly(ADP-ribose) polymerase 1) and its cleavage fragment (Figure 17 and Figures S29–S34). Full-length PARP1 (116 kDa) is involved in DNA repair, and a cleavage by caspases (fragment sizes 24 and 89 kDa) caused by caspase-3 and -7 is a hallmark of late apoptosis.
(§6) All detected specific bands were normalized to the total protein load per lane by the TGX stain-free gel system from Bio-Rad.
(§7) All Western blot analyses were performed with reagents, material, and devices purchased from Bio-Rad (Feldkirchen, Germany) if not stated otherwise. To obtain protein lysates, we seeded cells and treated them as described for the other methods. […] Cells were harvested by trypsinization and centrifugation for 5 min at 500× g. After a washing step with PBS, the cell pellet was resuspended in lysis buffer (Tris 50 mM (pH 7.4), 100 mM NaCl, 100 mM NaF, 5 mM EDTA, 0.2 mM Na3VO4, 0.1% Triton-X, and 1% protease inhibitor cocktail added immediately before use). Lysis was supported by incubating the samples for 10 min in an ultrasonic bath before centrifuging for 10 min at 18,000 × g and 4 °C. Protein quantification was performed via the Bradford method using ROTI®nanoquant reagent (Carl Roth GmbH, Karlsruhe, Germany) and bovine serum albumin as calibration standard. For electrophoretic separation, 15–40 µg of protein was loaded per well of a polyacrylamide gel (Mini- or Midi-Protean® TGX stain-free gel, Bio-Rad, Feldkirchen, Germany), and subsequent blotting was performed with Trans-Blot®Turbo™TransferPack Mini or Midi PVDF membranes from Bio-Rad (Feldkirchen, Germany). The membranes were blocked with a 10% non-fat milk powder solution in Tris-buffered saline (TBS; 2.42 g/L Tris, 8.48 g/L NaCl in water) plus 0.5% Tween-20 (TBST) for 1 h at RT. Incubation with primary antibodies took place over night at 4 °C in a 1:1000 dilution in TBST containing BSA (1%). The secondary antibodies conjugated to horse-radish peroxidase were diluted 1:10,000 in TBST and 1% BSA, and incubated for 4 h at RT. A detection step followed, applying Clarity™Western ECL substrate with subsequent imaging via the INTAS Advanced Fluorescence Imager. Between all incubation steps, the blots were washed three times for 10 min with TBST. The bands were quantified with the ImageLab software and normalized using the total protein quantification of the TGX stain-free gel system from Bio-Rad.

[19] = test system: PARP1 in HAP-1.KO.GPx1; assay: Western blot of cleaved PARP1; assay type: cell-based, human; conditions: pentathiepins IC90, doxorubicin 0.5 µM, 24 h
Procedure: as §5, §6, §7

[20] = test system: HAP-1.KO.GPx1; assay: annexin V-FITC/PI apoptosis assay; assay type: cell-based, human; conditions: pentathiepins IC90, doxorubicin 0.5 µM, 24 h
Procedure: As reported in our earlier publication, a representative pentathiepin was capable of inducing apoptosis in cancer cell lines. Here, we tested compounds 1–6 for their ability to trigger this particular modality of cell death in a subset of four cell lines: HAP-1, HAP-1.KO.GPx1, A2780, and Siso. A flow cytometric assay was performed, allowing us to discriminate between viable, early, and late apoptotic cells (representative dot plots can be found in Figure S47). FITC-labeled annexin V was used to assess the externalization of phosphatidyl serine as a hallmark of early apoptosis induction. The addition of propidium iodide (PI) enabled the detection of late apoptotic cells as it only permeates porous cell membranes and exerts fluorescence once bound to double-stranded DNA.
The annexin V-FITC/PI assay, which discriminates between viable, early, and late apoptotic cells within a sample population, was performed according to the manufacturer’s instructions (Miltenyi Biotec, Teterow, Germany). Briefly, 125,000 cells were seeded in 2 mL per well of a 6-well plate, allowed to adhere overnight, and subsequently treated with the respective pentathiepin (IC90, see Table S4) diluted in 3 mL of medium. After incubation periods of 6, 24, or 48 h, the cells were harvested, washed with the provided binding buffer, and stained with the annexin V-FITC reagent for 20 min at room temperature (RT) in the dark. After another washing step, the pellet was resuspended, and PI was added immediately before flow cytometric measurement at λEx/Em = 488/525 ± 50 nm for FITC and λEx/Em = 488/655–730 nm for PI with the MACSquant Analyzer 10 (Miltenyi Biotec, Teterow, Germany).

## CCOc1c2c(c3cnc4cc(C)c(C)cc4n13)SSSSS2 [(c)]
[1]
  ROS induction: +
[2]
  Apoptosis: +
[3]
  Cytotoxicity: +
[4]
  GR/CAT inhibition: 0
[5]
  DNA cleavage: +
[6]
  Ferroptosis: 0
[7]
  Morphological changes: +
[8]; summary grade, first generation compound
  GPx1 inhibition: +
[9]
  Antiproliferative effect: +
[10]
  Comet formation: +

## OO [Compound H2O2, hydrogen peroxide]
[11]
  intact genomic DNA (Comet head): about 10%
[12]
  intact genomic DNA (Comet head): 63%
[13]
  intact genomic DNA (Comet head): 5%

## O=C(O)CC(S)C(=O)O (stereo not drawn) [mercaptosuccinic acid]
[8]; GPx1 inhibition
  IC50: 5.9 µM

## COc1cccc2c1C(=O)c1c(O)c3c(c(O)c1C2=O)C[C@@](O)(C(=O)CO)C[C@@H]3O[C@H]1C[C@H](N)[C@H](O)[C@H](C)O1 [doxorubicin, reference compound]
[14]
  caspase-3 and -7 activity vs solvent control: activation of the caspase-3 and -7 was confirmed
[15]
  caspase-3 and -7 activity vs solvent control: activation of the caspase-3 and -7 was confirmed
[16]
  caspase-3 and -7 activity vs solvent control: activation of the caspase-3 and -7 was confirmed
[17]
  caspase-3 and -7 activity vs solvent control: activation of the caspase-3 and -7 was confirmed
[18]
  cleaved PARP1: detected to statistically significant extents
[19]
  cleaved PARP1: detected to statistically significant extents
[20]
  early apoptotic cells: about 50%
